Reference: US7491794B2, “Macrocyclic compounds as inhibitors of viral replication” (Intermune, Inc., priority 2003, dated 2009)
pEC50, pIC50: −log10 of the molar value.

Legend:
[1] = system: HCV sub-genomic replicon, GS4.3; assay: Quantitation by ELISA of NPTII in the HCV sub-genomic replicon, GS4.3, Section B; format: cell-based; conditions: Hepatitis C virus; GS4.3 cells, 72 h incubation; read-out: Replicon EC50
Summary of the method: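 NPTII marker protein in lysates was quantified by ELISA read at 450 nm after 72 h inhibitor exposure (3-fold series, final DMSO 1%, G418-free medium) of HuH-7 cells stably harbouring the subgenomic HCV replicon. Values relative to DMSO-treated controls; 4-parameter curves gave EC50.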

NS3-NS4A protease = biological target: T1, NS3-NS4A protease (Hepatitis C virus genotype 1a, UniProt P27958); assay: NS3-NS4A protease assay (NS3 inhibition assay, RETS1 substrate), Section B; format: biochemical; conditions: read-out: NS3-NS4A IC50
T1 construct: Recombinant E. coli or Baculovirus full-length NS3 was diluted to 3.33 μM with assay buffer; made in house; host or cells: E. coli or baculovirus (BV) system
T1 sequence (P27958 1027-1657): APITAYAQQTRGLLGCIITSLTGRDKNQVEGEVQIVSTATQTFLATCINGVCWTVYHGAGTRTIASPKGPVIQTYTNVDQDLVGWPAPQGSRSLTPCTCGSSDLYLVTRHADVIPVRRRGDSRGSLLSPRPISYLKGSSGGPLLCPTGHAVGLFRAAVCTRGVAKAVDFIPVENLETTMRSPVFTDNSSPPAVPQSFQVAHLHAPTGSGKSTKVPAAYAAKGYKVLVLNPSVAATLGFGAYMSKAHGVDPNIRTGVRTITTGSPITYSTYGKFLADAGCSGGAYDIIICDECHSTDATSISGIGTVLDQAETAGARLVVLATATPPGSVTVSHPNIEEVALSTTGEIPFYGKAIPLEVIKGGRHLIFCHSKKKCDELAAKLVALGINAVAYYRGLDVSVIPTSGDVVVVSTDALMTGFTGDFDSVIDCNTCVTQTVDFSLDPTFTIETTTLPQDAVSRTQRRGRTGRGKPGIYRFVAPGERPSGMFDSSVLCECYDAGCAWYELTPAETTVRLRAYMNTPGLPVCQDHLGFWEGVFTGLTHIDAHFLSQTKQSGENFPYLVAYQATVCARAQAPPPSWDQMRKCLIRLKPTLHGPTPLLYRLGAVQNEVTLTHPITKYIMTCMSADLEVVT
Summary of the method: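 Kinetic fluorescence read (335 nm excitation, 495 nm emission, 30 min) of RETS1 cleavage by NS3/NS4A-2 complex, 2 nM E. coli or 3 nM baculovirus NS3, after 10 min room-temperature compound pre-incubation. Four-parameter-fit IC50s converted to Ki by Cheng–Prusoff, Ki=IC50/(1+[S]/Km).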

Structure (SMILES) | pEC50 [1] | pIC50 (NS3-NS4A protease)
O=C(NC1CCCC1)N[C@H]1CCCCC/C=C\[C@@H]2C[C@@]2(C(=O)NS(=O)(=O)C2CC2)NC(=O)[C@@H]2C[C@@H](OC(=O)N3CCc4cccc(C(F)(F)F)c4C3)CN2C1=O [AR00304081, (1S,4R,6S,14S,18R)-8-Trifluoromethyl-3,4-dihydro-1H-isoquinoline-2-carboxylic acid 14-(3-cyclopentyl-ureido)-4-cyclopropanesulfonylaminocarbonyl-2,15-dioxo-3,16-diaza-tricyclo[14.3.0.0^4,6]nonadec-7-en-18-yl ester] | > 6.00 | > 7.00
O=C(NC1CCCC1)N[C@H]1CCCCC/C=C\[C@@H]2C[C@@]2(C(=O)NS(=O)(=O)C2CC2)NC(=O)[C@@H]2C[C@@H](OC(=O)N3Cc4ccccc4C3)CN2C1=O [AR00304082, (1S,4R,6S,14S,18R)-1,3-Dihydro-isoindole-2-carboxylic acid 14-(3-cyclopentyl-ureido)-4-cyclopropanesulfonylaminocarbonyl-2,15-dioxo-3,16-diaza-tricyclo[14.3.0.0^4,6]nonadec-7-en-18-yl ester] | > 7.00 | > 7.00
CC(C)(C)Nc1nc2c(s1)CN(C(=O)O[C@@H]1C[C@H]3C(=O)N[C@]4(C(=O)O)C[C@H]4/C=C\CCCCC[C@H](NC(=O)OC(C)(C)C)C(=O)N3C1)CC2 [AR00304103, (1S,4R,6S,14S,18R)-14-tert-Butoxycarbonylamino-18-(2-tert-butylamino-6,7-dihydro-4H-thiazolo[5,4-c]pyridine-5-carbonyloxy)-2,15-dioxo-3,16-diaza-tricyclo[14.3.0.0^4,6]nonadec-7-ene-4-carboxylic acid] | > 5.00 | > 5.00
O=C(N[C@H]1CCCCC/C=C\[C@@H]2C[C@@]2(C(=O)O)NC(=O)[C@@H]2C[C@@H](OC(=O)N3CCc4ccccc4C3)CN2C1=O)OCCF [AR00304125, (1S,4R,6S,14S,18R)-18-(3,4-Dihydro-1H-isoquinoline-2-carbonyloxy)-14-(2-fluoro-ethoxycarbonylamino)-2,15-dioxo-3,16-diaza-tricyclo[14.3.0.0^4,6]nonadec-7-ene-4-carboxylic acid] | > 5.00 | > 6.00
O=C(N[C@H]1CCCCC/C=C\[C@@H]2C[C@@]2(C(=O)O)NC(=O)[C@@H]2C[C@@H](OC(=O)N3CCc4ccccc4C3)CN2C1=O)O[C@H]1CCOC1 [AR00304126, (1S,4R,6S,14S,18R)-18-(3,4-Dihydro-1H-isoquinoline-2-carbonyloxy)-2,15-dioxo-14-(tetrahydro-furan-3S-yloxycarbonylamino)-3,16-diaza-tricyclo[14.3.0.0^4,6]nonadec-7-ene-4-carboxylic acid] | > 5.00 | > 6.00
O=C(N[C@H]1CCCCC/C=C\[C@@H]2C[C@@]2(C(=O)O)NC(=O)[C@@H]2C[C@@H](OC(=O)N3CCc4ccccc4C3)CN2C1=O)O[C@@H]1CCOC1 [AR00304127, (1S,4R,6S,14S,18R)-18-(3,4-Dihydro-1H-isoquinoline-2-carbonyloxy)-2,15-dioxo-14-(tetrahydro-furan-3R-yloxycarbonylamino)-3,16-diaza-tricyclo[14.3.0.0^4,6]nonadec-7-ene-4-carboxylic acid] | > 5.00 | > 6.00
O=C(N[C@H]1CCCCC/C=C\[C@@H]2C[C@@]2(C(=O)NS(=O)(=O)C2CC2)NC(=O)[C@@H]2C[C@@H](OC(=O)N3CCc4ccccc4C3)CN2C1=O)OCCF [AR00304161, (1S,4R,6S,14S,18R)-3,4-Dihydro-1H-isoquinoline-2-carboxylic acid 4-cyclopropanesulfonylaminocarbonyl-14-(2-fluoro-ethoxycarbonylamino)-2,15-dioxo-3,16-diaza-tricyclo[14.3.0.0^4,6]nonadec-7-en-18-yl ester] | > 7.00 | > 7.00
O=C(N[C@H]1CCCCC/C=C\[C@@H]2C[C@@]2(C(=O)NS(=O)(=O)C2CC2)NC(=O)[C@@H]2C[C@@H](OC(=O)N3CCc4ccccc4C3)CN2C1=O)O[C@H]1CCOC1 [AR00304162, (1S,4R,6S,14S,18R)-3,4-Dihydro-1H-isoquinoline-2-carboxylic acid 4-cyclopropanesulfonylaminocarbonyl-2,15-dioxo-14-(tetrahydro-furan-3-yloxycarbonylamino)-3,16-diaza-tricyclo[14.3.0.0^4,6]nonadec-7-en-18-yl ester] | > 7.00 | > 7.00
O=C(N[C@H]1CCCCC/C=C\[C@@H]2C[C@@]2(C(=O)NS(=O)(=O)C2CC2)NC(=O)[C@@H]2C[C@@H](OC(=O)N3CCc4ccccc4C3)CN2C1=O)O[C@@H]1CCOC1 [AR00304163, (1S,4R,6S,14S,18R)-3,4-Dihydro-1H-isoquinoline-2-carboxylic acid 4-cyclopropanesulfonylaminocarbonyl-2,15-dioxo-14-(tetrahydro-furan-3R-yloxycarbonylamino)-3,16-diaza-tricyclo[14.3.0.0^4,6]nonadec-7-en-18-yl ester] | > 7.00 | > 7.00
CC(C)(C)OC(=O)N[C@H]1CCCCC/C=C\[C@@H]2C[C@@]2(C(=O)NS(=O)(=O)C2CC2)NC(=O)[C@@H]2C[C@@H](OC(=O)N3CCc4nc(Nc5ccccc5)sc4C3)CN2C1=O [AR00311814, (1S,4R,6S,14S,18R)-2-Phenylamino-6,7-dihydro-4H-thiazolo[5,4-c]pyridine-5-carboxylic acid 14-tert-butoxycarbonylamino-4-cyclopropanesulfonylaminocarbonyl-2,15-dioxo-3,16-diaza-tricyclo[14.3.0.0^4,6]nonadec-7-en-18-yl ester] | > 5.00 | > 7.00
CC(C)(C)OC(=O)N[C@H]1CCCCC/C=C\[C@@H]2C[C@@]2(C(=O)NS(=O)(=O)C2CC2)NC(=O)[C@@H]2C[C@@H](OC(=O)N3CCc4ccccc4C3CN3CCCCC3)CN2C1=O (stereo partly drawn) [AR00311815, (1S,4R,6S,14S,18R)-1-Piperidin-1-ylmethyl-3,4-dihydro-1H-isoquinoline-2-carboxylic acid 14-tert-butoxycarbonylamino-4-cyclopropanesulfonylaminocarbonyl-2,15-dioxo-3,16-diaza-tricyclo[14.3.0.0^4,6]nonadec-7-en-18-yl ester] | > 6.00 | > 7.00
CC(C)(C)OC(=O)N[C@H]1CCCCC/C=C\[C@@H]2C[C@@]2(C(=O)NS(=O)(=O)C2CC2)NC(=O)[C@@H]2C[C@@H](OC(=O)N3Cc4ccccc4C4(CCC4)C3)CN2C1=O [AR00312024, (1S,4R,6S,14S,18R)-4,4-Spirocyclobutyl-3,4-dihydro-1H-isoquinoline-2-carboxylic acid 14-tert-butoxycarbonylamino-4-cyclopropanesulfonylaminocarbonyl-2,15-dioxo-3,16-diaza-tricyclo[14.3.0.0^4,6]nonadec-7-en-18-yl ester] | > 7.00 | > 7.00
CC(C)(C)OC(=O)N[C@H]1CCCCCC=C[C@@H]2C[C@@]2(C(=O)NS(=O)(=O)C2CC2)NC(=O)[C@@H]2C[C@@H](OC(=O)N3Cc4ccccc4C(C)(C)C3)CN2C1=O [AR00312025, (1S,4R,6S,14S,18R)-4,4-Dimethyl-3,4-dihydro-1H-isoquinoline-2-carboxylic acid 14-tert-butoxycarbonylamino-4-cyclopropanesulfonylaminocarbonyl-2,15-dioxo-3,16-diaza-tricyclo[14.3.0.0^4,6]nonadec-7-en-18-yl ester] | > 7.00 | > 7.00
CC1CN(C(=O)O[C@@H]2C[C@H]3C(=O)N[C@]4(C(=O)NS(=O)(=O)C5CC5)C[C@H]4/C=C\CCCCC[C@H](NC(=O)OC(C)(C)C)C(=O)N3C2)Cc2ccccc21 (stereo partly drawn) [AR00312026, (1S,4R,6S,14S,18R)-4-Methyl-3,4-dihydro-1H-isoquinoline-2-carboxylic acid 14-tert-butoxycarbonylamino-4-cyclopropanesulfonylaminocarbonyl-2,15-dioxo-3,16-diaza-tricyclo[14.3.0.0^4,6]nonadec-7-en-18-yl ester] | > 7.00 | > 7.00
O=C(N[C@H]1CCCCC/C=C\[C@@H]2C[C@@]2(C(=O)NS(=O)(=O)C2CC2)NC(=O)[C@@H]2C[C@@H](OC(=O)N3Cc4ccccc4C4(CCC4)C3)CN2C1=O)O[C@@H]1CCOC1 [AR00314635, (1S,4R,6S,14S,18R)-4,4-Spirocyclobutyl-3,4-dihydro-1H-isoquinoline-2-carboxylic acid 4-cyclopropanesulfonylaminocarbonyl-2,15-dioxo-14-(tetrahydro-furan-3-yloxycarbonylamino)-3,16-diaza-tricyclo[14.3.0.0^4,6]nonadec-7-en-18-yl ester] | > 7.00 | > 7.00
CC1(C)CN(C(=O)O[C@@H]2C[C@H]3C(=O)N[C@]4(C(=O)NS(=O)(=O)C5CC5)C[C@H]4/C=C\CCCCC[C@H](NC(=O)O[C@H]4CCOC4)C(=O)N3C2)Cc2ccccc21 [AR00314654, (1S,4R,6S,14S,18R)-4,4-Dimethyl-3,4-dihydro-1H-isoquinoline-2-carboxylic acid 4-cyclopropanesulfonylaminocarbonyl-2,15-dioxo-14-(tetrahydro-furan-3S-yloxycarbonylamino)-3,16-diaza-tricyclo[14.3.0.0^4,6]nonadec-7-en-18-yl ester] | > 7.00 | > 7.00
CC1CN(C(=O)O[C@@H]2C[C@H]3C(=O)N[C@]4(C(=O)NS(=O)(=O)C5CC5)C[C@H]4/C=C\CCCCC[C@H](NC(=O)NC(C)(C)C)C(=O)N3C2)Cc2ccccc21 (stereo partly drawn) [AR00314656, (1S,4R,6S,14S,18R)-4-Methyl-3,4-dihydro-1H-isoquinoline-2-carboxylic acid 14-(3-tert-butyl-ureido)-4-cyclopropanesulfonylaminocarbonyl-2,15-dioxo-3,16-diaza-tricyclo[14.3.0.0^4,6]nonadec-7-en-18-yl ester] | > 7.00 | > 7.00
